Test results published in patent US20190142835A1, “INHIBITION OF AUTOPHAGY USING PHOSPHOLIPASE A2 INHIBITORS” (OREGON HEALTH & SCIENCE UNIVERSITY, priority 2017, published 2019).

Experiments:
[1] = system: mouse embryo fibroblasts (MEFs) Atg5+/+; assay: Autophagy induction (lipidation of LC3) in Atg5+/+ MEFs; type: cell-based
[2] = system: ACHN cells; assay: Transcriptomic analysis with gene set enrichment (GSEA); type: cell-based, human
[3] = system: patient-derived RCC organotypic cultures; assay: Patient tumor ex vivo organotypic culture; type: cell-based, human; settings: 24 hours
Procedure: Tumor tissue samples were collected at the time of surgical removal for consented patients and transported in IMEM+FBS+PS. Tissue was sliced into thin sections using a surgical knife. Sections were cultured on an organotypic insert (EMD#PICMORG50) for 24 hours in IMEM+10% FBS+1% PS+50 ug/ml holo-transferrin with drug. A section of each tumor was immediately fixed in 10% buffered formalin to confirm tissue viability. After culture, treated tissue sections were fixed in 10% buffered formalin and embedded in paraffin. Paraffin embedded tumors were evaluated for morphology (H&E) and immunofluorescent signaling.
H&E slides of formalin fixed, paraffin embedded tissue was used to assess morphological integrity of tumor samples. Once integrity was confirmed, immunofluorescent analysis was performed for p-S6 (1:500 CST), p-AKT (1:200 CST) and LC3B (1:250 CST). Four micron sections were cut, de-paraffinized and rehydrated. Antigen retrieval was performed using citrate for 4 min in a pressure cooker. Slides were blocked using 2.5% normal goat serum for 30 min then incubated in primary antibody for 1 hr followed by secondary antibody mouse anti-rabbit alexa 488 (1:1000) for 30 min. Slides were rinsed in PBS, air dried, and coverslipped using Dako mounting media with Dapi.

[4] = system: human RCC cells (ACHN and SN12C); assay: Phosphoproteomics screen and kinase substrate enrichment analysis; type: cell-based; settings: phosphoproteome
Procedure: Enriched phospho-peptides were digested with trypsin and analyzed by mass spectroscopy following the published “Cell Signaling Technology” protocol.
MS raw files were analyzed via MaxQuant version 1.5.3.30 [73] and MS/MS fragmentation spectra were searched using Andromeda against human canonical and isoform sequences in Swiss-Prot (downloaded in September 2016 from http://uniprot.org). Quantitative phosphopeptide data were log10 transformed and missing data were imputed before applying quantile normalization as previously described. Hierarchical clustering was performed on the Cluster 3.0 program, using distance that is based on the Pearson correlation and applying pairwise average linkage analysis. Java Treeview was used to visualize clustering results.
Kinase substrate enrichment analysis (KSEA) was performed as previously described. […] Permutation analysis was conducted to calculate statistical significance. The normalized enrichment score was calculated by dividing the enrichment score by the average of the absolute values of all enrichment scores from the permutation analysis.

[5] = system: ACHN xenografts; assay: ACHN xenograft study; type: in vivo
Procedure: (§1) 6-week old mice were utilized for human renal cell carcinoma xenografts. For both ACHN and SN12C cell lines 2×10^6 cells were diluted in 50 μl of PBS and 50 μl of Matrigel (BD Biosciences) and were injected subcutaneously into the right and left flank of each mouse. Tumors were monitored until they reached an average size of 50-80 mm3 (approximately 2 weeks), at which point treatments were begun. […] MK2206 (60 mg/kg/day) were administered by oral gavage 2-3 day/week. […] Tumors and mouse weights were measured twice weekly. At least 6-8 mice per treatment group were included. All mice were euthanized using CO2 inhalation followed by cervical dislocation per institutional guidelines at Oregon Health and Science University. Experiments were approved by the Institutional Animal Care and Use Committee at OHSU.
(§2) Immunostaining was performed following deparaffinization and rehydration of slides. Antigen retrieval was performed in a pressure cooker using citrate buffer (pH 6.0) for 4 min. Nonspecific binding was blocked using Vector mouse IgG blocking serum 30 min at room temperature. Samples were incubated at room temperature with rabbit monoclonal antibodies pS6 (CST #5364) cleaved caspase 3 (CST#9661), and Ki67 (Dako#M7240).
(§3) Slides were developed with Vector Immpress rabbit IgG (#MP7401) and Vector Immpress mouse IgG (#MP7400) for 30 min at room temperature. Chromogenic detection was performed using Vector Immpact DAB (#SK4105) for 3 min. Slides were counterstained with hematoxylin. A 3DHistech MIDI Scanner (Perkin Elmer) was used to capture whole slide digital images with a 20× objective. Images were converted to into MRXS files and computer graphic analysis was completed using inForm 1.4.0 Advanced Image Analysis Software (Perkin Elmer).
Mouse tumor size was analyzed by 2-way ANOVA with time and drug as factors, using GraphPad Prism. Mouse weight during treatment was analyzed by repeated measures 2-way ANOVA, with time and drug as factors. A P value less than 0.05 was considered statistically significant. Immunohistochemistry: P-values were calculated using one-way ANOVA, with Bonferroni's multiple comparison test. * denotes P<0.05, ** denotes P<0.01, and *** denotes P<0.001 throughout this disclosure. Metabolite fold-changes were computed and visualized in Python script, using the openpyxl package (for importing Excel files) and the matplotlib package (for visualizing fold changes).

[6] = system: SN12C xenografts; assay: SN12C xenograft study; type: in vivo
Procedure: as §1, §2
as §3, with “Images were converted to into MRXS files and computer graphic analysis was completed using inForm 1.4.0 Advanced Image Analysis Software (Perkin Elmer).” left out
Mouse tumor size was analyzed by 2-way ANOVA with time and drug as factors, using GraphPad Prism. Mouse weight during treatment was analyzed by repeated measures 2-way ANOVA, with time and drug as factors. […] Immunohistochemistry: P-values were calculated using one-way ANOVA, with Bonferroni's multiple comparison test. * denotes P<0.05, ** denotes P<0.01, and *** denotes P<0.001 throughout this disclosure. […]

[7] = system: glycolysis; assay: Glucose uptake and lactate excretion as readouts for glycolysis; type: cell-based, human; settings: in vitro
Text: The PI3K-AKT-mTOR pathway regulates multiple steps in glucose uptake and metabolism.

[8] = system: ACHN cells; assay: Lipid droplet staining (Bodipy 493/503), ACHN; type: cell-based, human; settings: 24 hrs; p<0.001 vs control
Procedure: (§4) Cells were grown on coverslips then treated with drug for 24 hours. Cells were fixed in 4% paraformaldehyde for 15 min, rinsed with PBS. Cells were washed with a 1% saponin solution for 15 min at room temperature then washed several times in PBS to remove detergent. Cells were then incubated in Bodipy (ThermoFisher #D3922) at a final concentration of 1 uM for 10 min. Bodipy was removed and slides were rinsed with PBS then air dried and mounted on slides using Dako mounting media with Dapi.

[9] = system: Atg5−/− murine embryonic fibroblasts; assay: Lipid droplet number in Atg5−/− MEFs; type: cell-based, mouse; settings: ATG5 deficient, 24 hr
Procedure: as §4

[10] = system: MPN patients; settings: human, in vivo; cited from earlier work

SMILES: N#CCNC(=O)c1ccc(-c2ccnc(Nc3ccc(N4CCOCC4)cc3)n2)cc1 [CYT387]
- autophagy as seen by the lipidation of LC3 [1]: induce autophagy in a dose dependent manner
- expression of genes involved in glycolysis such as PFKB3 and HK2 [2]: downregulated genes involved in glycolysis
- LCB expression and phosphorylated S6 levels [3]: significantly induced LCB expression while simultaneously reducing phosphorylated S6 levels
- RICTOR phosphorylation [4]: hypophosphorylated at T^1135
- STAT3 Y^705 phosphorylation [4]: trended towards hypophosphorylation of STAT3 Y^705
- TSC2 phosphorylation (T^1462, S^1798) [4]: hypophosphorylated at two inhibitory phosphoresidues
- insulin receptor (INSR) Y^1189 phosphorylation [4]: hyperphosphorylation
- ribosomal protein S6 (RPS6) phosphorylation [4]: trended towards hypophosphorylation
- apoptosis (cleaved-caspase3) in tumors ([5]; ACHN xenograft tumors): minimal impact on apoptosis
- antitumor effect of single agent ([5]; ACHN, CYT387 50 mg/kg/day or MK2206 60 mg/kg/day oral gavage): exhibited antitumor effect
- number of adipophilin-positive LDs in tumors ([5]; treatment day 40, ACHN xenograft tumors, CYT387<MK2206<CYT387+MK2206, p=0.0046): significantly and incrementally increased
- apoptosis (cleaved-caspase3) in tumors ([6]; SN12C xenograft tumors): minimal impact on apoptosis
- antitumor effect of single agent ([6]; SN12C, CYT387 50 mg/kg/day or MK2206 60 mg/kg/day oral gavage): exhibited antitumor effect
- glucose uptake ([7]; 18FDG): significantly decreased glucose uptake
- lactate production ([7]; culture media): reduced lactate production
- number of lipid droplets [8]: increase in the number of lipid droplets
- size of lipid droplets [8]: increase in the size of lipid droplets
- lipid droplets [9]: no increase in lipid droplets
- clinical effect in MPN patients [10]: improved splenomegaly and reduced anemia
